Experimental findings from PMC12684391, “Mechanistic insights into the monotherapy and combination potential of FEN1 inhibition in cancer therapy” (Nucleic Acids Research, 2025) are described below.

Assay [1] addresses T1, XPG (Homo sapiens, UniProt P28715).
T1 construct: XPG (1-1186); Strep-tag (C); made in house; host or cells: Sf9 insect cells
Nature of the assay: Fluorescence-based nuclease activity assay, XPG. The format is biochemical. The following applies: n = 10, SD = 0.86; cognate substrate. How it is done:
(§1) MSC778 was dissolved in dimethyl sulphoxide (DMSO) to give a 10 mM stock. FEN1/EXO1: compound was dispensed into black 384-shallow well microplates (Greiner #784076). The compound was dispensed as an 11-point dose response with a 3-fold serial dilution from a top concentration of 10 mM (to give a final in-assay concentration of 100 µM). GEN1/XPG: MSC778 was dispensed into black 1536-well plates (Greiner #782076). The compound was dispensed as a 20-point dose response with a 3-fold serial dilution from a top concentration of 10 mM (to give a final in-assay concentration of 100 µM). The volume of DMSO was adjusted to ensure that each well contained 1% (v/v) DMSO in the final assay. Control wells containing DMSO alone or inhibitor at sufficient concentration to cause complete inhibition of the reaction were also included. […]
(§2) 5 µl (FEN1/EXO1) or 3 µl per well (GEN1/XPG) of stop buffer (20 mM Tris pH 7.5, 300 mM EDTA) was added to all wells, then the plates were read on the CLARIOstar Plus (BMG LABTECH Ltd.) using the Fluorescein (FITC) wavelengths (Ex 483 ± 14, Em 530 ± 30, Dichroic auto/502.5) and auto focal height/gain settings.
(§3) All data analysis was carried out using Genedata Screener software. IC50 values were calculated using the SmartFit function.

For assay [2], the target named is T2, EXO1 (Homo sapiens, UniProt Q9UQ84).
T2 construct: EXO1 (1-846); purchased Peak Proteins, Macclesfield, UK
Nature of the assay: Fluorescence-based nuclease activity assay, EXO1. The format is biochemical. The settings on record: n = 3, SD = 223; cognate substrate. How it is done:
as §1, §2, §3

Assay [3] concerns DLD-1 cells. The assay is described as follows: Cell viability assay (AlamarBlue), 7 days. Format: cell-based. The following applies: Homo sapiens, 168 h, DLD-1 wild-type, N = 3. The protocol: Cells were seeded in 96-well plates and treated the day after seeding with a serial dilution of compounds in technical duplicates. After 7 days, viability was analyzed using the AlamarBlue reagent (BioRad). AlamarBlue was added in an amount equal to 10% of the volume in the well and after a 4–6 h incubation viability was determined by fluorescence analysis using a standard plate reader. Fluorescence was normalized to vehicle treated control for each cell line, and data were fitted in Genedata Screener to generate compound sensitivity curves and determine IC50 or EC50 (half maximal inhibitory/effective concentration) values as indicated.

Assay [4] deals with SUM149PT 53BP1KO and SHLD2KO cells. Nature of the assay: Cell viability assay (CTG), 7 days, PARP inhibitor resistant models. The format is cell-based. The settings on record: less sensitive than parental. How it is done: Cells were seeded in 150 μl of media in 96-well plates or in 70 μl of media in 384-well plates pre-dosed with compounds (8–10 points dose response) with a D300e digital dispenser (Tecan) and incubated for 24 h at 37°C and 5% CO2. Cell proliferation at the end of the assay (7 days) was measured using CTG (Promega, G9243). CTG luminescence was normalized to vehicle treated control for each cell line, and data were fitted with a nonlinear regression curve (four parameters) to generate compound sensitivity curves and determine IC50 or EC50 (half maximal inhibitory/effective concentration) values as indicated.

The subject of assay [5] is HCT-116, NCI-H460, SUM149PT, MDA-MB-436 cells. The assay is described as follows: Combination viability assay (CTG, Bliss synergy). The format is cell-based. The settings on record: control in place of MSC778. The protocol:
For combination analysis, cells were seeded in 70 μl of media in 384-well plates pre-dosed with compounds (5-point dose–response matrix) with a D300e digital dispenser (Tecan). Cell proliferation was determined after 7 days using CTG. Analysis was performed with Genedata Screener (Compound Synergy Extension) to determine Synergy scores (Bliss model), using a formulation whereby the Blissexcess is a continuous value and values higher than 2 are usually considered synergistic, and values between 0 and 2 are usually considered additive.

T1 sequence (P28715 whole entry): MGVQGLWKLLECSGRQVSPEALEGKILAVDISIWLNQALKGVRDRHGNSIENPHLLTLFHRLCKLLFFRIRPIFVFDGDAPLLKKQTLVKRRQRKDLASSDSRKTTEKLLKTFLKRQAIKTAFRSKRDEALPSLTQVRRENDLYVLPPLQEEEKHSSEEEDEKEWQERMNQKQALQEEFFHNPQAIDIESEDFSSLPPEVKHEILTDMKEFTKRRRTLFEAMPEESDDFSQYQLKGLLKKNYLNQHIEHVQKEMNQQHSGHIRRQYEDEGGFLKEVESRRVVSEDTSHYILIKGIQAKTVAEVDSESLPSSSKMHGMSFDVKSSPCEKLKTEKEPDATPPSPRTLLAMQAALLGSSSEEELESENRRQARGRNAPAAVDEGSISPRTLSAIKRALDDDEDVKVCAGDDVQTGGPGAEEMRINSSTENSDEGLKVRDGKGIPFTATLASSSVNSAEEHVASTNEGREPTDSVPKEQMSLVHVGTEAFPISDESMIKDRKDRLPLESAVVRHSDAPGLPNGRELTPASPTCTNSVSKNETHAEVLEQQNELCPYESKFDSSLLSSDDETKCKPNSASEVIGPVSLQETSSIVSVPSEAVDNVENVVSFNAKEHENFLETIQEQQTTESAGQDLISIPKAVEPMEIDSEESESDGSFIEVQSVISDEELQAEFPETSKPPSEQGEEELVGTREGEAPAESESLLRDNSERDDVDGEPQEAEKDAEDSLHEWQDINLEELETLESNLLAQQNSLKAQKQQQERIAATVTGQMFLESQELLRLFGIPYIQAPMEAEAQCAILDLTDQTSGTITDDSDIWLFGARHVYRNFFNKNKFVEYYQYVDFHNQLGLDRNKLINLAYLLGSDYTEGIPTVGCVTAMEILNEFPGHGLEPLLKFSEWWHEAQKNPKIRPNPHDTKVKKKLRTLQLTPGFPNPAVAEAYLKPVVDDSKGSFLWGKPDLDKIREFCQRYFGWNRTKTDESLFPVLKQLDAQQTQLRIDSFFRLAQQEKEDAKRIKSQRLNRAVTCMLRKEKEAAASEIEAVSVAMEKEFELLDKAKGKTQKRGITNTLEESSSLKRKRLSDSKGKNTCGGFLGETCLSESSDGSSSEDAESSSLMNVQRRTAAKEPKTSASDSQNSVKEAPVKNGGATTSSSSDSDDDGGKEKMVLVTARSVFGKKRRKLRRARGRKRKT
T2 sequence (Q9UQ84 whole entry): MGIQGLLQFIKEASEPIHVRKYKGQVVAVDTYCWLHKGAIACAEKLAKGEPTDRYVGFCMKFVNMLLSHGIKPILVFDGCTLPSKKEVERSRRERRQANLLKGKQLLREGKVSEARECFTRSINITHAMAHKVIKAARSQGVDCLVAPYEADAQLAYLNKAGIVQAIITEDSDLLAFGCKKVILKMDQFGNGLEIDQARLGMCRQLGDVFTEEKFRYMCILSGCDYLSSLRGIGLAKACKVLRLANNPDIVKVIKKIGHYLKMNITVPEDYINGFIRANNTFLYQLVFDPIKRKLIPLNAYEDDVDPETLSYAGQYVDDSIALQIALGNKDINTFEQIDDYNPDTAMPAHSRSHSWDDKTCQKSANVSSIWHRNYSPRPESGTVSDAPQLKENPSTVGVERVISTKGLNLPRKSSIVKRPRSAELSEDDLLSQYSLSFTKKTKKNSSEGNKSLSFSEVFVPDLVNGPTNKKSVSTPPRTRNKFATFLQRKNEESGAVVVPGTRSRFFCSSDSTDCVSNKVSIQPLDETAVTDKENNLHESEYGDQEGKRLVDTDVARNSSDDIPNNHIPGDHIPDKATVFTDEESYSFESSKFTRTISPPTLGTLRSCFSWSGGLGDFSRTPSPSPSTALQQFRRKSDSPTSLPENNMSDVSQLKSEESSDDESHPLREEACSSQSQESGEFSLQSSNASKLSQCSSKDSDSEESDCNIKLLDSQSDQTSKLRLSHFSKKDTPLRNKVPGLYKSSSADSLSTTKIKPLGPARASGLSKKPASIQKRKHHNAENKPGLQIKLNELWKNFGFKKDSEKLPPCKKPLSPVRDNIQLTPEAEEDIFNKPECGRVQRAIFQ

Take `C[C@H](Oc1nn2c(c(O)c1=O)C(=O)N1CCOC[C@@H]1C2)c1ccc2ccc(Cl)cc2c1` [MSC778]: the figures for the concentration for half-maximal inhibition (IC50) in assay [1] and in assay [2] were 218 nM and 871 nM, respectively. The molecule also registered an EC50 in assay [3] of 2300 nM. Besides, the “Change in sensitivity of SUM149PT 53BP1KO and SHLD2KO cells versus parental cells” value in assay [4] is on record as 2 fold.
For the molecule `C[C@@H](Oc1nn2c(c(O)c1=O)C(=O)N1CCOC[C@@H]1C2)c1ccc2ccc(Cl)cc2c1` [MSC781], in assay [5], the “Combination effects on viability with partner DDR inhibitors” value is “not observed”.
